Measurements reported in EP3970494A1 (priority 2020, dated 2022).

Columns and labels:
Test in all cases: microbe, parasite or virus in culture
Assay type in all cases: cell-based
Septoria tritici = details: Zymoseptoria tritici, 168 h
Fusarium culmorum = details: 168 h
Phytophthora infestans = details: 168 h, read-out: Fungal growth at 31 ppm (%) PHYTIN

## CO/N=C(/C(=O)OC)c1cccc(C)c1CO/N=C(\C)c1cccc(OC)n1 [Example 6]
Septoria tritici
  activity at 31 ppm: 7%

## CNC(=O)/C(=N/OC)c1cccc(C)c1CO/N=C(\C)c1ncc(C(F)(F)F)s1 [Example 53, (2E)-2-Methoxyimino-N-methyl-2-[3-methyl-2-[[(E)-1-[5-(trifluoromethyl)thiazol-2-yl]ethylideneamino]oxymethyl]phenyl]acetamide]
Fusarium culmorum
  activity at 31 ppm: 21%

## CNC(=O)/C(=N/OC)c1cccc(C)c1CO/N=C(\C)c1cc(-c2cccc(C(F)(F)F)c2)on1 [Example 22, (2E)-2-Methoxyimino-N-methyl-2-[3-methyl-2-[[(E)-1-[5-[3-(trifluoromethyl)phenyl]-isoxazol-3-yl]ethylideneamino]oxymethyl]phenyl]acetamide]
Phytophthora infestans
  activity at 31 ppm: 17%

## CNC(=O)/C(=N/OC)c1cccc(C)c1CO/N=C(\C)c1ccc(Cl)nn1 [Example 92]
Phytophthora infestans
  activity at 31 ppm: 0%
Fusarium culmorum
  activity at 31 ppm: 17%

## CNC(=O)/C(=N/OC)c1cccc(C)c1CO/N=C(/c1nccs1)C(F)F [Example 154]
Fusarium culmorum
  activity at 31 ppm: 14%

## CNC(=O)/C(=N/OC)c1cccc(C)c1CO/N=C(\C)c1cnc(C(F)(F)F)cn1 [Example 97, (2E)-2-methoxyimino-N-methyl-2-[3-methyl-2-[[(E)-1-[5-(trifluoromethyl)pyrazin-2-yl]ethylideneamino]oxymethyl]phenyl]acetamide]
Phytophthora infestans
  activity at 31 ppm: 0%
Fusarium culmorum
  activity at 31 ppm: 17%

## CO/N=C(/C(=O)OC)c1cccc(C)c1CO/N=C(\C)c1cc(C(F)(F)F)nn1C [Example 117, Methyl (2E)-2-methoxyimino-2-[3-methyl-2-[[(E)-1-[2-methyl-5-(trifluoromethyl)pyrazol-3-yl]ethylideneamino]oxymethyl]phenyl]acetate]
Fusarium culmorum
  activity at 31 ppm: 18%

## CNC(=O)/C(=N/OC)c1cccc(C)c1CO/N=C(\C)c1ccc(C#CC2CC2)nc1 [Example 69]
Phytophthora infestans
  activity at 31 ppm: 0%
Fusarium culmorum
  activity at 31 ppm: 11%

## CO/N=C(/C(=O)OC)c1cccc(C)c1CO/N=C(\C)c1ccc(C#CC2CC2)cn1 [Example 111]
Phytophthora infestans
  activity at 31 ppm: 15%

## CO/N=C(/C(=O)OC)c1cccc(C)c1CO/N=C(\C)c1ncc(-c2ccc(F)cc2)s1 [Example 79, Methyl (2E)-2-[2-[[(E)-1-[5-(4-fluorophenyl)thiazol-2-yl]ethylideneamino]oxymethyl]-3-methyl-phenyl]-2-methoxyimino-acetate]
Phytophthora infestans
  activity at 31 ppm: 17%
Fusarium culmorum
  activity at 31 ppm: 13%

## CNC(=O)/C(=N/OC)c1cccc(C)c1CO/N=C(\C)c1cc(-c2ccc(F)cc2)sn1 [Example 12, (2E)-2-[2-[[(E)-1-[5-(4-Fluorophenyl)isothiazol-3-yl]ethylideneamino]oxymethyl]-3-methyl-phenyl]-2-methoxyimino-N-methyl-acetamide]
Phytophthora infestans
  activity at 31 ppm: 2%
Fusarium culmorum
  activity at 31 ppm: 11%

## C#Cc1cnc(/C(C)=N/OCc2c(C)cccc2/C(=N\OC)C(=O)NC)s1 [Example 61]
Phytophthora infestans
  activity at 31 ppm: 19%
Fusarium culmorum
  activity at 31 ppm: 11%

## CNC(=O)/C(=N/OC)c1cccc(C)c1CO/N=C(\C)c1ccncc1 [Example 134]
Phytophthora infestans
  activity at 31 ppm: 0%
Fusarium culmorum
  activity at 31 ppm: 20%

## CNC(=O)/C(=N/OC)c1cccc(C)c1CO/N=C(\C)c1csc(C(F)(F)F)n1 [Example 115]
Phytophthora infestans
  activity at 31 ppm: 0%
Fusarium culmorum
  activity at 31 ppm: 13%

## CNC(=O)/C(=N/OC)c1cccc(C)c1CO/N=C(\C)c1cc(-c2ccc(F)cc2)on1 [Example 15]
Phytophthora infestans
  activity at 31 ppm: 0%
Fusarium culmorum
  activity at 31 ppm: 20%

## CO/N=C(/C(=O)OC)c1cccc(C)c1CO/N=C(\C)c1ccncc1 [Example 130]
Phytophthora infestans
  activity at 31 ppm: 0%
Fusarium culmorum
  activity at 31 ppm: 17%

## CNC(=O)/C(=N/OC)c1cccc(C)c1CO/N=C(\C)c1ccnc(C(F)(F)F)c1 [Example 48]
Phytophthora infestans
  activity at 31 ppm: 1%
Fusarium culmorum
  activity at 31 ppm: 17%

## CNC(=O)/C(=N/OC)c1cccc(C)c1CO/N=C(\C)c1cn(C)nc1C(F)F [Example 50]
Phytophthora infestans
  activity at 31 ppm: 0%
Fusarium culmorum
  activity at 31 ppm: 18%

## CO/N=C(/C(=O)OC)c1cccc(C)c1CO/N=C(\C)c1cc(C(F)(F)F)cc(Cl)n1 [Example 42]
Fusarium culmorum
  activity at 31 ppm: 10%

## C=Cc1cnc(/C(C)=N/OCc2c(C)cccc2/C(=N\OC)C(=O)NC)s1 [Example 144]
Fusarium culmorum
  activity at 31 ppm: 14%

## CO/N=C(/C(=O)OC)c1cccc(C)c1CO/N=C(\C)c1cc(-c2ccccc2)on1 [Example 21]
Phytophthora infestans
  activity at 31 ppm: 5%

## CNC(=O)/C(=N/OC)c1cccc(C)c1CO/N=C(\C)c1cscn1 [Example 127]
Phytophthora infestans
  activity at 31 ppm: 0%

## CO/N=C(/C(=O)OC)c1cccc(C)c1CO/N=C(\C)c1cn(C)nc1C(F)F [Example 49]
Phytophthora infestans
  activity at 31 ppm: 0%
Fusarium culmorum
  activity at 31 ppm: 17%

## CNC(=O)/C(=N/OC)c1cccc(C)c1CO/N=C(\C)c1cccc(C)n1 [Example 81]
Phytophthora infestans
  activity at 31 ppm: 0%
Fusarium culmorum
  activity at 31 ppm: 9%

## CNC(=O)/C(=N/OC)c1cccc(C)c1CO/N=C(\C)c1cc(-c2ccccc2)on1 [Example 23]
Phytophthora infestans
  activity at 31 ppm: 1%
Fusarium culmorum
  activity at 31 ppm: 5%

## CO/N=C(/C(=O)OC)c1cccc(C)c1CO/N=C(\C)c1cc(-c2ccc(F)cc2)sn1 [Example 11, Methyl (2E)-2-[2-[[(E)-1-[5-(4-fluorophenyl)isothiazol-3-yl]ethylideneamino]oxymethyl]-3-methyl-phenyl]-2-methoxyimino-acetate]
Septoria tritici
  activity at 31 ppm: 10%

## CNC(=O)/C(=N/OC)c1cccc(C)c1CO/N=C(\C)c1cncc(F)c1 [Example 76]
Phytophthora infestans
  activity at 31 ppm: 0%
Fusarium culmorum
  activity at 31 ppm: 16%

## CNC(=O)/C(=N/OC)c1cccc(C)c1CO/N=C(\C)c1cc(-c2cccc(C(F)(F)F)c2)sn1 [Example 39]
Phytophthora infestans
  activity at 31 ppm: 8%
Fusarium culmorum
  activity at 31 ppm: 14%

## CO/N=C(/C(=O)OC)c1cccc(C)c1CO/N=C(\C)c1cc(-c2ccccc2)sn1 [Example 36]
Phytophthora infestans
  activity at 31 ppm: 10%

## CO/N=C(/C(=O)OC)c1cccc(C)c1CO/N=C(\C)c1cc(-c2ccc(Cl)cc2)on1 [Example 18]
Fusarium culmorum
  activity at 31 ppm: 16%

## CNC(=O)/C(=N/OC)c1cccc(C)c1CO/N=C(\C)c1nc(C(F)(F)F)cs1 [Example 95]
Fusarium culmorum
  activity at 31 ppm: 17%

## CNC(=O)/C(=N/OC)c1cccc(C)c1CO/N=C(\C)c1cc(C(F)F)nc(C)n1 [Example 62]
Phytophthora infestans
  activity at 31 ppm: 0%
Fusarium culmorum
  activity at 31 ppm: 11%

## CO/N=C(/C(=O)OC)c1cccc(C)c1CO/N=C(\C)c1cc(-c2ccc(F)cc2)on1 [Example 14]
Fusarium culmorum
  activity at 31 ppm: 20%

## CNC(=O)/C(=N/OC)c1cccc(C)c1CO/N=C(\C)c1cncc(C(F)(F)F)c1 [Example 85, (2E)-2-methoxyimino-N-methyl-2-[3-methyl-2-[[(E)-1-[5-(trifluoromethyl)-3-pyridyl]-ethylideneamino]oxymethyl]phenyl]acetamide]
Phytophthora infestans
  activity at 31 ppm: 0%
Fusarium culmorum
  activity at 31 ppm: 16%

## CNC(=O)/C(=N/OC)c1cccc(C)c1CO/N=C(\C)c1cccnc1 [Example 135]
Phytophthora infestans
  activity at 31 ppm: 0%
Fusarium culmorum
  activity at 31 ppm: 19%

## CNC(=O)/C(=N/OC)c1cccc(C)c1CO/N=C(\C)c1cc(C(F)(F)F)cc(C)n1 [Example 80]
Phytophthora infestans
  activity at 31 ppm: 0%
Fusarium culmorum
  activity at 31 ppm: 16%

## CNC(=O)/C(=N/OC)c1cccc(C)c1CO/N=C(\C)c1ncccc1F [Example 77]
Phytophthora infestans
  activity at 31 ppm: 0%
Fusarium culmorum
  activity at 31 ppm: 11%

## CNC(=O)/C(=N/OC)c1cccc(C)c1CO/N=C(\C)c1cc(C#N)cc(Cl)n1 [Example 63]
Phytophthora infestans
  activity at 31 ppm: 0%
Fusarium culmorum
  activity at 31 ppm: 18%

## CO/N=C(/C(=O)OC)c1cccc(C)c1CO/N=C(\C)c1ncc(C(F)(F)F)s1 [Example 123, Methyl (2E)-2-methoxyimino-2-[3-methyl-2-[[(E)-1-[5-(trifluoromethyl)thiazol-2-yl]-ethylideneamino]oxymethyl]phenyl]acetate]
Fusarium culmorum
  activity at 31 ppm: 17%

## CO/N=C(/C(=O)OC)c1cccc(C)c1CO/N=C(\C)c1ccc(Cl)c(C(F)(F)F)c1 [Example 82]
Phytophthora infestans
  activity at 31 ppm: 3%
Fusarium culmorum
  activity at 31 ppm: 17%

## CO/N=C(/C(=O)OC)c1cccc(C)c1CO/N=C(\C)c1cncc(F)c1 [Example 75]
Phytophthora infestans
  activity at 31 ppm: 0%

## CO/N=C(/C(=O)OC)c1cccc(C)c1CO/N=C(\C)c1cscn1 [Example 126]
Phytophthora infestans
  activity at 31 ppm: 0%

## CNC(=O)/C(=N/OC)c1cccc(C)c1CO/N=C(\C)c1cn(C)nc1C(F)(F)F [Example 52]
Fusarium culmorum
  activity at 31 ppm: 12%

## CNC(=O)/C(=N/OC)c1cccc(C)c1CO/N=C(\C)c1ccc(C#CC2CC2)cn1 [Example 112]
Phytophthora infestans
  activity at 31 ppm: 2%
Fusarium culmorum
  activity at 31 ppm: 21%

## CNC(=O)/C(=N/OC)c1cccc(C)c1CO/N=C(\C)c1cccc(F)n1 [Example 107]
Phytophthora infestans
  activity at 31 ppm: 0%
Fusarium culmorum
  activity at 31 ppm: 16%

## CNC(=O)/C(=N/OC)c1cccc(C)c1CO/N=C(/c1nccs1)C1CC1 [Example 110]
Phytophthora infestans
  activity at 31 ppm: 0%

## CO/N=C(/C(=O)OC)c1cccc(C)c1CO/N=C(\C)c1cnccc1C(F)(F)F [Example 155]
Fusarium culmorum
  activity at 31 ppm: 18%

## CNC(=O)/C(=N/OC)c1cccc(C)c1CO/N=C(\C)c1cc(C(F)(F)F)cc(C#N)n1 [Example 86]
Phytophthora infestans
  activity at 31 ppm: 0%
Fusarium culmorum
  activity at 31 ppm: 16%

## CO/N=C(/C(=O)OC)c1cccc(C)c1CO/N=C(\C)c1ccccn1 [Example 129]
Phytophthora infestans
  activity at 31 ppm: 0%

## CNC(=O)/C(=N/OC)c1cccc(C)c1CO/N=C(\C)c1cc(C(F)(F)F)c(C#N)cn1 [Example 99]
Phytophthora infestans
  activity at 31 ppm: 20%

## CNC(=O)/C(=N/OC)c1cccc(C)c1CO/N=C(\C)c1cc(N2CC(F)(F)C2)ccn1 [Example 90]
Phytophthora infestans
  activity at 31 ppm: 0%

## CNC(=O)/C(=N/OC)c1cccc(C)c1CO/N=C(\C)c1cncc(C(F)(F)F)n1 [Example 89, (2E)-2-Methoxyimino-N-methyl-2-[3-methyl-2-[[(E)-1-[6-(trifluoromethyl)pyrazin-2-yl]ethylideneamino]oxymethyl]phenyl]acetamide]
Phytophthora infestans
  activity at 31 ppm: 0%
Fusarium culmorum
  activity at 31 ppm: 13%

## CNC(=O)/C(=N/OC)c1cccc(C)c1CO/N=C(\C)c1ncc(-c2ccc(F)cc2)s1 [Example 78, (2E)-2-[2-[[(E)-1-[5-(4-fluorophenyl)thiazol-2-yl]ethylideneamino]oxymethyl]-3-methyl-phenyl]-2-methoxyimino-N-methyl-acetamide]
Phytophthora infestans
  activity at 31 ppm: 3%
Fusarium culmorum
  activity at 31 ppm: 16%
